16 molecules from patent US6638951B1, “Benzamide derivatives and drugs containing the same” (Hokuriku Seiyaku Co., Ltd., priority 1999, dated 2003) can be followed below.

As a reminder, the melting point is the temperature of the solid-liquid transition.

One data set deals with male ferrets. The data set can be described thus: Emetic action in ferrets. In kind it is in vivo. As to conditions: 16 hours fasting, 10 mg/kg p.o., during 2 hours after administration, 8 tested ferrets per compound. The protocol:
The tested compound of Example 5 was used as a methanesulfonic acid salt, and the following compounds disclosed in Japanese Patent Unexamined Publication No. 5-262724/1993 were used as reference compounds:
Each test compound dissolved in 10% aqueous dimethyl sulfoxide solution was administered to male ferrets, weighing 0.9 to 1.3 kg, and 16 hours fasting, and then the incidence of vomiting was observed during 2 hours after the administration.

Structures can show the parent of a compound that is named as a salt.

Molecule `CCCOC(=O)CN1CCC(NC(=O)c2cc(Cl)c(N)cc2OC)CC1` (as salt: methanesulfonate) [Example 2, n-Propyl 4-(4-amino-5-chloro-2-methoxybenzamido)-1-piperidineacetate] showed a melting point of 209 to 210 °C.

Turning to `COc1cc(N)c(Cl)cc1C(=O)NC1CCN(CC(=O)OCC(C)C)CC1` [Example 4, Isobutyl 4-(4-amino-5-chloro-2-methoxybenzamido)-1-piperidineacetate], the “Number of ferrets showing vomiting” value with male ferrets is given as 1.

As to `CCOC(=O)CN1CCC(NC(=O)c2cc(Cl)c(N)cc2OC)CC1.Cl` [Reference compound 2, Ethyl 4-(4-amino-5-chloro-2-methoxybenzamido)-1-piperidine-acetate hydrochloride, reference compound], the “Number of ferrets showing vomiting” value with male ferrets is 8.

Turning to `COc1cc(N)c(Cl)cc1C(=O)NC1CCN(CC(=O)OCCC(C)C)CC1` (as salt: methanesulfonate) [Example 6, Isopentyl 4-(4-amino-5-chloro-2-methoxybenzamido)-1-piperidineacetate], the melting point fell in the range of 199.5 to 201 °C.

In turn, `COc1cc(N)c(Cl)cc1C(=O)NC1CCN(CC(=O)OC(C)C)CC1` (as salt: hydrochloride) [Example 3, Isopropyl 4-(4-amino-5-chloro-2-methoxybenzamido)-1-piperidineacetate] showed a melting point of 125 to 130 °C.

Take `CCCOC(=O)CN1CCC(NC(=O)c2cc(Cl)c(N)cc2OC)CC1` [Example 2, n-Propyl 4-(4-amino-5-chloro-2-methoxybenzamido)-1-piperidineacetate]: the “Number of ferrets showing vomiting” value in the data set with male ferrets amounted to 2.

On to `CCCCCCOC(=O)CN1CCC(NC(=O)c2cc(Cl)c(N)cc2OC)CC1` (as salt: hydrochloride) [Example 7, n-Hexyl 4-(4-amino-5-chloro-2-methoxybenzamido)-1-piperidineacetate], for which the melting point was in the range of 133 to 137 °C.

On to `CCCCOC(=O)CN1CCC(NC(=O)c2cc(Cl)c(N)cc2OC)CC1` [Example 1, n-Butyl 4-(4-amino-5-chloro-2-methoxybenzamido)-1-piperidineacetate], for which the “Number of ferrets showing vomiting” value in the data set on male ferrets is listed as 0.

As to `CCCCOC(=O)CN1CCC(NC(=O)c2cc(Cl)c(N)cc2OC)CC1` (as salt: methanesulfonate) [Example 9, n-Butyl 4-(4-amino-5-chloro-2-methoxybenzamido)-1-piperidineacetate], the melting point is 111 to 112 °C.

Consider `CCCCCOC(=O)CN1CCC(NC(=O)c2cc(Cl)c(N)cc2OC)CC1` [Example 5, n-Pentyl 4-(4-amino-5-chloro-2-methoxybenzamido)-1-piperidineacetate], for which the “Number of ferrets showing vomiting” value with male ferrets was found to be 0.

The molecule `COc1cc(N)c(Cl)cc1C(=O)NC1CCN(CC(=O)OCC(C)C)CC1` (as salt: methanesulfonate) [Example 4, Isobutyl 4-(4-amino-5-chloro-2-methoxybenzamido)-1-piperidineacetate] displayed a melting point of 207 to 208 °C.

Turning to `CCCCCOC(=O)CN1CCC(NC(=O)c2cc(Cl)c(N)cc2OC)CC1` (as salt: methanesulfonate) [Example 5, n-Pentyl 4-(4-amino-5-chloro-2-methoxybenzamido)-1-piperidineacetate], the melting point was 202.5 to 203 °C.

In the case of `COc1cc(N)c(Cl)cc1C(=O)NC1CCN(CC(=O)O)CC1.Cl` [Reference compound 1, 4-(4-amino-5-chloro-2-methoxybenzamido)-1-piperidineacetic acid hydrochloride, reference compound], in the data set with male ferrets, the “Number of ferrets showing vomiting” value is 0.

Consider `CCCCOC(=O)CN1CCC(NC(=O)c2cc(Cl)c(N)cc2OC)CC1` (as salt: methanesulfonate) [Example 1, n-Butyl 4-(4-amino-5-chloro-2-methoxybenzamido)-1-piperidineacetate], for which the melting point fell in the range of 209 to 211.5 °C.

Take `CCCCCCOC(=O)CN1CCC(NC(=O)c2cc(Cl)c(N)cc2OC)CC1` [Example 7, n-Hexyl 4-(4-amino-5-chloro-2-methoxybenzamido)-1-piperidineacetate]: in the data set on male ferrets, the “Number of ferrets showing vomiting” value is recorded as 1.

Molecule `CCCCOC(=O)CN1CCC(NC(=O)c2cc(Cl)c(N)cc2OC)CC1` (as salt: hydrochloride) [Example 8, n-Butyl 4-(4-amino-5-chloro-2-methoxybenzamido)-1-piperidineacetate] gave a melting point of 141 to 144 °C.
